# Read-outs that look alike come from different tables or passages of the source.
# Assays:
# [1] = cited from earlier work
# [2] = cited from earlier work; remark: listed apart in the source
# [3] = cited from earlier work; remark: listed apart in the source
# [4] = cited from earlier work; remark: listed apart in the source
# [5] = cited from earlier work; remark: listed apart in the source
# [6] = cited from earlier work; remark: listed apart in the source
# [7] = cited from earlier work; remark: listed apart in the source
# [8] = cited from earlier work; remark: listed apart in the source
# [9] = cited from earlier work; remark: listed apart in the source
# [10] = cited from earlier work; remark: listed apart in the source
# Bacillus cereus = tested on: Bacillus cereus
# How it was run: (§1)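 Read-out was optical microscopy, with the MIC taken as the concentration showing no detectable cells. Peptides spanned 0.5 to 256 μM under CLSI M7-A10 conditions for bacteria, in three biological repetitions of duplicate wells.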
# Bacillus subtilis = settings: Bacillus subtilis; for Minimum inhibitory concentration, Average: average of triplicates
# How it was run: as §1
# Candida albicans = settings: Candida albicans; for Minimum inhibitory concentration, Average: average of triplicates
# How it was run: (§2)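 MICs determined per CLSI M7-A10 (bacteria) and M27-A3 (yeasts) protocols, peptides tested at 0.5 to 256 μM. MIC taken as the lowest concentration with no cells seen by optical microscopy; three biological repeats with 2 technical replicates each.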
# Cryptococcus neoformans = settings: Cryptococcus neoformans; for Minimum inhibitory concentration, Average: average of triplicates
# How it was run: as §2
# Erwinia carotovora = settings: Erwinia carotovora; for Minimum inhibitory concentration, Average: average of triplicates
# How it was run: as §1
# Escherichia coli = settings: Escherichia coli; for Minimum inhibitory concentration, Average: average of triplicates
# How it was run: as §1
# Pseudomonas aeruginosa = settings: Pseudomonas aeruginosa; for Minimum inhibitory concentration, Average: average of triplicates
# How it was run: as §1
# [11] = tested on: Pseudomonas syringae pv. tabaci; settings: Pseudomonas syringae pv. tabaci; for Minimum inhibitory concentration, Average: average of triplicates
# How it was run: as §1
# Staphylococcus aureus = settings: Staphylococcus aureus; for Minimum inhibitory concentration, Average: average of triplicates
# How it was run: as §1
# Xanthomonas campestris = settings: for Minimum inhibitory concentration, Average: average of triplicates
# How it was run: as §1
# [12] = CLSI M27-A3, 0.5 to 256 μM tested, triplicate 1, also published in ref 7
substance,measurement,setting,value
Syphaxin,"H broad component, DMPC LUVs",[1],2260 kcal/mol
same,"Hv broad component, DMPC LUVs",[2],120000
same,"Hv sharp component, DMPC LUVs",[3],383000
same,"Tm broad component, DMPC LUVs",[4],25.4 °C
same,"Tm sharp component, DMPC LUVs",[5],21.9 °C
same,"H broad component, 2:1 DMPC:DMPG LUVs",[6],3240 kcal/mol
same,"H sharp component, 2:1 DMPC:DMPG LUVs",[7],197 kcal/mol
same,"Hv broad component, 2:1 DMPC:DMPG LUVs",[8],101000
same,"Tm broad component, 2:1 DMPC:DMPG LUVs",[9],25.4 °C
same,"Tm sharp component, 2:1 DMPC:DMPG LUVs",[10],22.8 °C
GKILKYLLYLLRKYANLIIR [Tc02],Minimum inhibitory concentration,"Bacillus cereus; Bacillus cereus, CLSI M7-A10, triplicate 1",16 µM
same,"Minimum inhibitory concentration, Average","Bacillus cereus; Bacillus cereus, average of triplicates",13.3 µM
same,Minimum inhibitory concentration,"Bacillus cereus; Bacillus cereus, triplicate 2",16 µM
same,Minimum inhibitory concentration,"Bacillus cereus; Bacillus cereus, triplicate 3",8 µM
same,Minimum inhibitory concentration,"Bacillus subtilis; CLSI M7-A10, triplicate 1",4 µM
same,"Minimum inhibitory concentration, Average",Bacillus subtilis,4.0 µM
same,Minimum inhibitory concentration,Bacillus subtilis; triplicate 2,4 µM
same,Minimum inhibitory concentration,Bacillus subtilis; triplicate 3,4 µM
same,Minimum inhibitory concentration,Candida albicans; [12],1 µM
same,"Minimum inhibitory concentration, Average",Candida albicans,1.0 µM
same,Minimum inhibitory concentration,Candida albicans; triplicate 2,1 µM
same,Minimum inhibitory concentration,Candida albicans; triplicate 3,1 µM
same,Minimum inhibitory concentration,"Cryptococcus neoformans; CLSI M27-A3, triplicate 1",1 µM
same,"Minimum inhibitory concentration, Average",Cryptococcus neoformans,1.0 µM
same,Minimum inhibitory concentration,Cryptococcus neoformans; triplicate 2,1 µM
same,Minimum inhibitory concentration,Cryptococcus neoformans; triplicate 3,1 µM
same,Minimum inhibitory concentration,"Erwinia carotovora; CLSI M7-A10, triplicate 1",16 µM
same,"Minimum inhibitory concentration, Average",Erwinia carotovora,16.0 µM
same,Minimum inhibitory concentration,Erwinia carotovora; triplicate 2,16 µM
same,Minimum inhibitory concentration,Erwinia carotovora; triplicate 3,16 µM
same,Minimum inhibitory concentration,"Escherichia coli; CLSI M7-A10, triplicate 1",8 µM
same,"Minimum inhibitory concentration, Average",Escherichia coli,10.7 µM
same,Minimum inhibitory concentration,Escherichia coli; triplicate 2,8 µM
same,Minimum inhibitory concentration,Escherichia coli; triplicate 3,16 µM
same,Minimum inhibitory concentration,"Pseudomonas aeruginosa; CLSI M7-A10, triplicate 1",16 µM
same,"Minimum inhibitory concentration, Average",Pseudomonas aeruginosa,16.0 µM
same,Minimum inhibitory concentration,Pseudomonas aeruginosa; triplicate 2,16 µM
same,Minimum inhibitory concentration,Pseudomonas aeruginosa; triplicate 3,16 µM
same,Minimum inhibitory concentration,"[11]; CLSI M7-A10, triplicate 1",4 µM
same,"Minimum inhibitory concentration, Average",[11],4.0 µM
same,Minimum inhibitory concentration,[11]; triplicate 2,4 µM
same,Minimum inhibitory concentration,[11]; triplicate 3,4 µM
same,Minimum inhibitory concentration,"Staphylococcus aureus; CLSI M7-A10, triplicate 1",8 µM
same,"Minimum inhibitory concentration, Average",Staphylococcus aureus,8.0 µM
same,Minimum inhibitory concentration,Staphylococcus aureus; triplicate 2,8 µM
same,Minimum inhibitory concentration,Staphylococcus aureus; triplicate 3,8 µM
same,Minimum inhibitory concentration,"Xanthomonas campestris; CLSI M7-A10, triplicate 1",16 µM
same,"Minimum inhibitory concentration, Average",Xanthomonas campestris,16.0 µM
same,Minimum inhibitory concentration,Xanthomonas campestris; triplicate 2,16 µM
same,Minimum inhibitory concentration,Xanthomonas campestris; triplicate 3,16 µM
Penetratin,"H broad component, DMPC LUVs",[1],2890 kcal/mol
same,"Hv broad component, DMPC LUVs",[2],295000
same,"Hv sharp component, DMPC LUVs",[3],1.01e+06
same,"Tm broad component, DMPC LUVs",[4],23.5 °C
same,"Tm sharp component, DMPC LUVs",[5],24.2 °C
same,"H broad component, 2:1 DMPC:DMPG LUVs",[6],2560 kcal/mol
same,"H sharp component, 2:1 DMPC:DMPG LUVs",[7],3360 kcal/mol
same,"Hv broad component, 2:1 DMPC:DMPG LUVs",[8],116000
same,"Tm broad component, 2:1 DMPC:DMPG LUVs",[9],26.6 °C
same,"Tm sharp component, 2:1 DMPC:DMPG LUVs",[10],24.5 °C
GSLHGFMYKYLKNMVLTLF [At01],Minimum inhibitory concentration,Bacillus cereus,128 µM
same,"Minimum inhibitory concentration, Average",Bacillus cereus,128.0 µM
same,Minimum inhibitory concentration,"Bacillus subtilis; CLSI M7-A10, triplicate 1",16 µM
same,"Minimum inhibitory concentration, Average",Bacillus subtilis,16.0 µM
same,Minimum inhibitory concentration,Bacillus subtilis; triplicate 2,16 µM
same,Minimum inhibitory concentration,Bacillus subtilis; triplicate 3,16 µM
same,Minimum inhibitory concentration,Candida albicans; [12],16 µM
same,"Minimum inhibitory concentration, Average",Candida albicans,16.0 µM
same,Minimum inhibitory concentration,Candida albicans; triplicate 2,16 µM
same,Minimum inhibitory concentration,Candida albicans; triplicate 3,16 µM
same,Minimum inhibitory concentration,"Cryptococcus neoformans; CLSI M27-A3, triplicate 1",16 µM
same,"Minimum inhibitory concentration, Average",Cryptococcus neoformans,16.0 µM
same,Minimum inhibitory concentration,Cryptococcus neoformans; triplicate 2,16 µM
same,Minimum inhibitory concentration,Cryptococcus neoformans; triplicate 3,16 µM
same,Minimum inhibitory concentration,"Erwinia carotovora; CLSI M7-A10, triplicate 1",256 µM
same,"Minimum inhibitory concentration, Average",Erwinia carotovora,256.0 µM
same,Minimum inhibitory concentration,Erwinia carotovora; triplicate 2,256 µM
same,Minimum inhibitory concentration,Erwinia carotovora; triplicate 3,256 µM
same,Minimum inhibitory concentration,"Escherichia coli; CLSI M7-A10, triplicate 1",64 µM
same,"Minimum inhibitory concentration, Average",Escherichia coli,64.0 µM
same,Minimum inhibitory concentration,Escherichia coli; triplicate 2,64 µM
same,Minimum inhibitory concentration,Escherichia coli; triplicate 3,64 µM
same,Minimum inhibitory concentration,"Pseudomonas aeruginosa; CLSI M7-A10, triplicate 1",32 µM
same,"Minimum inhibitory concentration, Average",Pseudomonas aeruginosa,32.0 µM
same,Minimum inhibitory concentration,Pseudomonas aeruginosa; triplicate 2,32 µM
same,Minimum inhibitory concentration,Pseudomonas aeruginosa; triplicate 3,32 µM
same,Minimum inhibitory concentration,"[11]; CLSI M7-A10, triplicate 1",16 µM
same,"Minimum inhibitory concentration, Average",[11],16.0 µM
same,Minimum inhibitory concentration,[11]; triplicate 2,16 µM
same,Minimum inhibitory concentration,[11]; triplicate 3,16 µM
same,Minimum inhibitory concentration,"Staphylococcus aureus; CLSI M7-A10, triplicate 1",16 µM
same,"Minimum inhibitory concentration, Average",Staphylococcus aureus,16.0 µM
same,Minimum inhibitory concentration,Staphylococcus aureus; triplicate 2,16 µM
same,Minimum inhibitory concentration,Staphylococcus aureus; triplicate 3,16 µM
same,Minimum inhibitory concentration,"Xanthomonas campestris; CLSI M7-A10, triplicate 1",128 µM
same,"Minimum inhibitory concentration, Average",Xanthomonas campestris,128.0 µM
same,Minimum inhibitory concentration,Xanthomonas campestris; triplicate 2,128 µM
same,Minimum inhibitory concentration,Xanthomonas campestris; triplicate 3,128 µM
